Test results reported in PubChem BioAssay AID328 (DTP/NCI, 2004).
Where “and” joins values, the source holds several entries; their conditions need not be identical. Equal values may be shown once. Inconclusive results and toxic doses are left out. How the source made its calls: active means survival T/C of 150% or more; inactive means T/C below 125% in these data.

Test system: BDF1 mice, P388 leukemia ip, median survival T/C
Assay: NCI In Vivo Anticancer Drug Screen. Data for tumor model P388 Leukemia (intraperitoneal) in B6D2F1 (BDF1) mice
Conditions: endpoint: median survival time, higher = longer survival
In short: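 Compound-treated tumour-bearing mice were compared with vehicle-treated controls. Survival was recorded, and the value is the treated-group measurement divided by the control-group measurement (T/C).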

[1] = dose: 6.25 mg/kg/injection, schedule: Q01DX009 (ip), vehicle: saline with Tween-80
[2] = dose: 50.0 mg/kg/injection, schedule: Q01DX009 (ip), vehicle: saline
[3] = dose: 50.0 mg/kg/injection, schedule: Q04DX003 (ip), vehicle: saline
[4] = dose: 100.0 mg/kg/injection, schedule: Q01DX009 (ip), vehicle: saline
[5] = dose: 100.0 mg/kg/injection, schedule: Q04DX003 (ip), vehicle: saline with Tween-80
[6] = dose: 200.0 mg/kg/injection, schedule: Q04DX003 (ip), vehicle: saline with Tween-80
[7] = dose: 400.0 mg/kg/injection, schedule: Q04DX003 (ip), vehicle: saline with Tween-80

Measured: T/C

CCOC(=O)CCC(NC(=O)c1ccc2c(c1)CCCN2C=O)C(=O)OCC (stereo not drawn)
inactive: dose: 25.0 mg/kg/injection, schedule: Q01DX001 (ip), vehicle: saline sonified 100 % of control | dose: 50.0 mg/kg/injection, schedule: Q01DX001 (ip), vehicle: saline sonified 100 % of control | dose: 100.0 mg/kg/injection, schedule: Q01DX001 (ip), vehicle: saline sonified 100 % of control

O=C(Nc1ccc(F)cc1)Nc1cccc2ccccc12
inactive: dose: 100.0 mg/kg/injection, schedule: Q01DX001 (ip), vehicle: saline with Tween-80 90 % of control | dose: 200.0 mg/kg/injection, schedule: Q01DX001 (ip), vehicle: saline with Tween-80 90 % of control | dose: 400.0 mg/kg/injection, schedule: Q01DX001 (ip), vehicle: saline with Tween-80 90 % of control

CNC(=S)N/N=C(\C)c1ccccn1
inactive: [1] 102 % of control | dose: 12.5 mg/kg/injection, schedule: Q01DX009 (ip), vehicle: saline with Tween-80 121 % of control | dose: 25.0 mg/kg/injection, schedule: Q01DX009 (ip), vehicle: saline with Tween-80 102 % of control

CC1CC[N-]CC1.CC1CC[N-]CC1.[Br][Pt+2]([Br])([Br])[Br]
inactive: dose: 1.56 mg/kg/injection, schedule: Q01DX009 (ip), vehicle: saline with Tween-80 100 % of control | dose: 3.12 mg/kg/injection, schedule: Q01DX009 (ip), vehicle: saline with Tween-80 94 % of control | dose: 3.12 mg/kg/injection, schedule: Q04DX003 (ip), vehicle: saline with Tween-80 97 % of control | [1] 107 % of control | dose: 6.25 mg/kg/injection, schedule: Q04DX003 (ip), vehicle: saline with Tween-80 91 % of control and 108 % of control | dose: 12.5 mg/kg/injection, schedule: Q04DX003 (ip), vehicle: saline with Tween-80 100 % of control | dose: 25.0 mg/kg/injection, schedule: Q04DX003 (ip), vehicle: saline with Tween-80 117 % of control | dose: 50.0 mg/kg/injection, schedule: Q04DX003 (ip), vehicle: saline with Tween-80 91 % of control and 121 % of control

C[N+](C)(C)C.N=C=O.N=C=O.N=C=O.N=C=O.[Co+2]
inactive: dose: 2.5 mg/kg/injection, schedule: Q01DX009 (ip), vehicle: saline 88 % of control | dose: 5.0 mg/kg/injection, schedule: Q01DX001 (ip), vehicle: other 86 % of control | dose: 5.0 mg/kg/injection, schedule: Q01DX009 (ip), vehicle: saline with Tween-80 100 % of control | dose: 5.0 mg/kg/injection, schedule: Q04DX003 (ip), vehicle: saline with Tween-80 95 % of control | dose: 10.0 mg/kg/injection, schedule: Q01DX001 (ip), vehicle: other 95 % of control | dose: 10.0 mg/kg/injection, schedule: Q01DX009 (ip), vehicle: saline with Tween-80 115 % of control and 116 % of control | dose: 10.0 mg/kg/injection, schedule: Q04DX003 (ip), vehicle: saline with Tween-80 109 % of control | dose: 20.0 mg/kg/injection, schedule: Q01DX001 (ip), vehicle: other 100 % of control | dose: 20.0 mg/kg/injection, schedule: Q01DX009 (ip), vehicle: saline with Tween-80 95 % of control and 115 % of control | dose: 20.0 mg/kg/injection, schedule: Q01DX009 (ip), vehicle: saline 95 % of control | dose: 20.0 mg/kg/injection, schedule: Q04DX003 (ip), vehicle: saline with Tween-80 95 % of control | dose: 40.0 mg/kg/injection, schedule: Q01DX009 (ip), vehicle: saline 117 % of control

C=CCn1nnc(-c2ccccc2)n1
inactive: dose: 50.0 mg/kg/injection, schedule: Q01DX009 (ip), vehicle: saline with Tween-80 117 % of control | dose: 100.0 mg/kg/injection, schedule: Q01DX009 (ip), vehicle: saline with Tween-80 117 % of control | dose: 200.0 mg/kg/injection, schedule: Q01DX009 (ip), vehicle: saline with Tween-80 119 % of control

O=C1Oc2ccccc2C1=O
inactive: [2] 100 % of control | [3] 100 % of control | [4] 100 % of control | dose: 100.0 mg/kg/injection, schedule: Q04DX003 (ip), vehicle: saline 100 % of control | dose: 200.0 mg/kg/injection, schedule: Q04DX003 (ip), vehicle: saline 100 % of control

COc1ccc(C(CCl)(CCl)c2ccc(OC)cc2)cc1
inactive: dose: 100.0 mg/kg/injection, schedule: Q01DX009 (ip), vehicle: gum acacia 116 % of control | dose: 100.0 mg/kg/injection, schedule: Q04DX003 (ip), vehicle: gum acacia 87 % of control | dose: 200.0 mg/kg/injection, schedule: Q01DX009 (ip), vehicle: gum acacia 112 % of control | dose: 200.0 mg/kg/injection, schedule: Q04DX003 (ip), vehicle: gum acacia 104 % of control | dose: 400.0 mg/kg/injection, schedule: Q01DX009 (ip), vehicle: gum acacia 104 % of control | dose: 400.0 mg/kg/injection, schedule: Q04DX003 (ip), vehicle: gum acacia 95 % of control

CCCC1CC[N-]CC1.CCCC1CC[N-]CC1.[Cl][Cu][Cl]
inactive: dose: 2.0 mg/kg/injection, schedule: Q01DX009 (ip), vehicle: saline 89 % of control | dose: 4.0 mg/kg/injection, schedule: Q01DX009 (ip), vehicle: saline 100 % of control | dose: 8.0 mg/kg/injection, schedule: Q01DX009 (ip), vehicle: saline 100 % of control

O=C1c2ccccc2S(=O)(=O)N1CC(O)COc1ccc(Cl)cc1 (stereo not drawn)
inactive: [5] 104 % of control | [6] 100 % of control | [7] 95 % of control

CCOC(=O)/C(=C/C(C#N)=C/N(C)C)CC
inactive: dose: 100.0 mg/kg/injection, schedule: Q01DX001 (ip), vehicle: other 100 % of control | dose: 200.0 mg/kg/injection, schedule: Q01DX001 (ip), vehicle: other 109 % of control | dose: 400.0 mg/kg/injection, schedule: Q01DX001 (ip), vehicle: other 109 % of control

NC(CSCc1ccccc1)CSCc1ccccc1
inactive: dose: 0.78 mg/kg/injection, schedule: Q04DX003 (ip), vehicle: saline 99 % of control | dose: 1.56 mg/kg/injection, schedule: Q04DX003 (ip), vehicle: saline 86 % of control and 91 % of control | dose: 6.25 mg/kg/injection, schedule: Q01DX009 (ip), vehicle: saline 107 % of control | dose: 6.25 mg/kg/injection, schedule: Q04DX003 (ip), vehicle: saline 99 % of control and 104 % of control | dose: 12.5 mg/kg/injection, schedule: Q01DX009 (ip), vehicle: saline 109 % of control | dose: 12.5 mg/kg/injection, schedule: Q04DX003 (ip), vehicle: saline 94 % of control and 95 % of control and 100 % of control | dose: 25.0 mg/kg/injection, schedule: Q01DX009 (ip), vehicle: saline 118 % of control | dose: 25.0 mg/kg/injection, schedule: Q04DX003 (ip), vehicle: saline 99 % of control and 100 % of control and 120 % of control | [2] 109 % of control | [3] 104 % of control | [4] 109 % of control

O=CNc1ccc(C(=O)O)cc1
inactive: [5] 100 % of control | [6] 104 % of control | [7] 91 % of control

Nc1nc(N)c2cc(NCc3ccccc3Cl)ccc2n1
inactive: dose: 2.34 mg/kg/injection, schedule: Q04DX003 (ip), vehicle: Klucel (hydroxypropylcellulose) (HPC) 104 % of control | dose: 4.68 mg/kg/injection, schedule: Q04DX003 (ip), vehicle: Klucel (hydroxypropylcellulose) (HPC) 100 % of control | dose: 6.25 mg/kg/injection, schedule: Q01DX009 (ip), vehicle: Klucel (hydroxypropylcellulose) (HPC) 105 % of control | dose: 9.37 mg/kg/injection, schedule: Q04DX003 (ip), vehicle: Klucel (hydroxypropylcellulose) (HPC) 122 % of control | dose: 12.5 mg/kg/injection, schedule: Q01DX009 (ip), vehicle: Klucel (hydroxypropylcellulose) (HPC) 110 % of control | dose: 18.75 mg/kg/injection, schedule: Q04DX003 (ip), vehicle: Klucel (hydroxypropylcellulose) (HPC) 100 % of control | dose: 25.0 mg/kg/injection, schedule: Q01DX009 (ip), vehicle: Klucel (hydroxypropylcellulose) (HPC) 100 % of control
